The target of this assay is T1, Human Recombinant Matriptase 2 (Homo sapiens, UniProt Q8IU80).
T1 construct: made in house
T1 sequence (Q8IU80 1-811): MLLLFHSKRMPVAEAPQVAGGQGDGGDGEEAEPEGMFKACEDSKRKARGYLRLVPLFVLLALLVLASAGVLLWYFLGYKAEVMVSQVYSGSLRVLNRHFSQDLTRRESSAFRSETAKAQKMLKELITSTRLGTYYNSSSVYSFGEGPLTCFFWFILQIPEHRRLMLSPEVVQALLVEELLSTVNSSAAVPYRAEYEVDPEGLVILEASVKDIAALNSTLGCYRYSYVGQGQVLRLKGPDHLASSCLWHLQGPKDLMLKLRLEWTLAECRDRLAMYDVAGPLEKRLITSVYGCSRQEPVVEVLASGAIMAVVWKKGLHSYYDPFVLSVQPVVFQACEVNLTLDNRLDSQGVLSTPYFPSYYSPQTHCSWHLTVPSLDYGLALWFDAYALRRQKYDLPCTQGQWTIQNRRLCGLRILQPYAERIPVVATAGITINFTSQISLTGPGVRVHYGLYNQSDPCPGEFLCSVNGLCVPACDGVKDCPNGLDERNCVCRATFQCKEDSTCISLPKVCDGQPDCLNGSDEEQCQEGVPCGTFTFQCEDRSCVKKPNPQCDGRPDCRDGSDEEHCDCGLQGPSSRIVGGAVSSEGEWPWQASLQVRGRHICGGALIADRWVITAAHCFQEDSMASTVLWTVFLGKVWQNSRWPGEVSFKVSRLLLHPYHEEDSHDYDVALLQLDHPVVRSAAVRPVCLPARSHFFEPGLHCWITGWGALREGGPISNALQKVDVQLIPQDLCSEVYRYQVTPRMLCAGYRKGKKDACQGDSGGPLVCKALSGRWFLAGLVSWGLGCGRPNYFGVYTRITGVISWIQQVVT
Nature of the assay: Matriptase 2 inhibition, fluorescence based assay (Method I). It is filed as biochemical. The conditions noted are these: Table A; Ki of Matriptase-2 given as class symbols; read-out: Mat-2 Ki. In a few lines: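 In-house recombinant enzyme (3.5 nM), preincubated 30 min with compound, then Boc-Gln-Ala-Arg-AMC substrate (62 μM) in 50 mM Tris pH 7.5, 150 mM NaCl, 0.01% gelatin, 1% DMSO, 25 °C. Fluorescence (Ex 360/Em 480 nm) read 60 min after substrate; IC50 from variable-slope sigmoidal fit of % inhibition.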
One may read the Ki as a measure of affinity in units of concentration, obtained from inhibition or displacement. Consider `NCc1ccc2cc(C(=O)O)n(Cc3cc(NS(=O)(=O)CCc4ccccc4)cc4ccccc34)c2n1` [Compound 230, 6-(aminomethyl)-1-{[3-(2-phenylethanesulfon-amido)naphthalen-1-yl]-methyl}-1H-pyrrolo[2,3-b]pyridine-2-carboxylic acid], for which the Ki is 100 to 500 nM.
In the case of `NCc1ccc2cc(C(=O)O)n(Cc3cc(NS(=O)(=O)Cc4cncnc4)cc4ccccc34)c2n1` [Compound 231, 6-(aminomethyl)-1-({3-[(pyrimidin-5-yl)methane-sulfonamido]naphthalen-1-yl}methyl)-1H-pyr-rolo[2,3-b]pyridine-2-carboxylic acid] it was 100 to 500 nM.
With `NCc1ccc2cc(C(=O)O)n(Cc3cc(NS(=O)(=O)CCCN4CCCC4)cc4ccccc34)c2n1` [Compound 232, 6-(aminomethyl)-1-({3-[3-(pyrrolidin-1-yl)-propanesulfonamido]-naphthalen-1-yl}methyl)-1H-pyrrolo[2,3-b]pyr-idine-2-carboxylic acid] the figure was 100 to 500 nM; with `NCc1ccc2cc(C(=O)O)n(Cc3cc(NS(=O)(=O)Cc4ccno4)cc4ccccc34)c2n1` [Compound 233, 6-(aminomethyl)-1-({3-[(1,2-oxazol-5-yl)-methanesulfonamido]-naphthalen-1-yl}methyl)-1H-pyrrolo[2,3-b]pyr-idine-2-carboxylic acid], 100 to 500 nM; with `COCCN1CCN(CCS(=O)(=O)Nc2cc(Cn3c(C(=O)O)cc4ccc(CN)nc43)c3ccccc3c2)CC1` [Compound 234, 6-(aminomethyl)-1-[(3-{2-[4-(2-methoxyethyl)-piperazin-1-yl]ethane-sulfonamido}naphthalen-1-yl)methyl]-1H-pyr-rolo[2,3-b]pyridine-2-carboxylic acid], 100 to 500 nM.
In the case of `CN1CCC[C@H]1CCS(=O)(=O)Nc1cc(Cn2c(C(=O)O)cc3ccc(CN)nc32)c2ccccc2c1` [Compound 235, 6-(aminomethyl)-1-[(3-{2-[(2S)-1-methylpyr-rolidin-2-yl]ethanesul-fonamido}naphthalen-1-yl)methyl]-1H-pyrrolo-[2,3-b]pyridine-2-car-boxylic acid] it was 100 to 500 nM.
Consider `NCc1ccc2cc(C(=O)O)n(Cc3cc(NS(=O)(=O)Cc4ccco4)cc4ccccc34)c2n1` [Compound 236, 6-(aminomethyl)-1-({3-[(furan-2-yl)methane-sulfonamido]naphthalen-1-yl}methyl)-1H-pyr-rolo[2,3-b]pyridine-2-carboxylic acid], for which the Ki is 100 to 500 nM.
As to `CN1CCC(CS(=O)(=O)Nc2cc(Cn3c(C(=O)O)cc4ccc(CN)nc43)c3ccccc3c2)CC1` [Compound 237, 6-(aminomethyl)-1-({3-[(1-methylpiperidin-4-yl)methanesulfonamido]-naphthalen-1-yl}methyl)-1H-pyrrolo[2,3-b]pyr-idine-2-carboxylic acid], the Ki lay within 100 to 500 nM.
With `Cc1cccc(CS(=O)(=O)Nc2cc(Cn3c(C(=O)O)cc4ccc(CN)nc43)c3ccccc3c2)c1` [Compound 238, 6-(aminomethyl)-1-({3-[(3-methylphenyl)meth-anesulfonamido]naph-thalen-1-yl}methyl)-1H-pyrrolo[2,3-b]pyridine-2-carboxylic acid] the figure was 100 to 500 nM; with `NCc1ccc2cc(C(=O)O)n(Cc3cc(NS(=O)(=O)Cc4cscn4)cc4ccccc34)c2n1` [Compound 239, 6-(aminomethyl)-1-({3-[(1,3-thiazol-4-yl)meth-anesulfonamido]naph-thalen-1-yl}methyl)-1H-pyrrolo[2,3-b]pyridine-2-carboxylic acid], 100 to 500 nM.
Turning to `NCc1ccc2cc(C(=O)O)n(Cc3cc(NS(=O)(=O)C4CCOCC4)cc4ccccc34)c2n1` [Compound 240, 6-(aminomethyl)-1-{[3-(oxane-4-sulfonamido)-naphthalen-1-yl]methyl}-1H-pyrrolo[2,3-b]pyr-idine-2-carboxylic acid], the Ki lay in the range of 100 to 500 nM.
In the case of `CCOC(=O)c1cc2ccc(CN)nc2n1Cc1cc(NS(=O)(=O)CC2CCNCC2)cc2ccccc12` [Compound 241, ethyl 6-(aminomethyl)-1-({3-[(piperidin-4-yl)-methanesulfonamido]-naphthalen-1-yl}methyl)-1H-pyrrolo[2,3-b]pyr-idine-2-carboxylate] it was 100 to 500 nM; in that of `NCc1ccc2cc(C(=O)O)n(Cc3cc(NS(=O)(=O)Cc4cccnc4)cc4ccccc34)c2n1` [Compound 242, 6-(aminomethyl)-1-({3-[(pyridin-3-yl)methane-sulfonamido]naphthalen-1-yl}methyl)-1H-pyr-rolo[2,3-b]pyridine-2-carboxylic acid], 100 to 500 nM; in that of `Cc1conc1CS(=O)(=O)Nc1cc(Cn2c(C(=O)O)cc3ccc(CN)nc32)c2ccccc2c1` [Compound 243, 6-(aminomethyl)-1-({3-[(4-methyl-1,2-oxazol-3-yl)methanesulfonamido]-naphthalen-1-yl}methyl)-1H-pyrrolo[2,3-b]pyr-idine-2-carboxylic acid], 100 to 500 nM.
In the case of `Cn1cc(CS(=O)(=O)Nc2cc(Cn3c(C(=O)O)cc4ccc(CN)nc43)c3ccccc3c2)cn1` [Compound 244, 6-(aminomethyl)-1-({3-[(1-methyl-1H-pyrazol-4-yl)methanesulfonamido]-naphthalen-1-yl}methyl)-1H-pyrrolo[2,3-b]pyr-idine-2-carboxylic acid] it was 100 to 500 nM.
With `NCc1ccc2cc(C(=O)O)n(Cc3cc(NS(=O)(=O)Cc4ccncc4)cc4ccccc34)c2n1` [Compound 245, 6-(aminomethyl)-1-({3-[(pyridin-4-yl)methane-sulfonamido]naphthalen-1-yl}methyl)-1H-pyr-rolo[2,3-b]pyridine-2-carboxylic acid] the figure was 100 to 500 nM.
As for `NCc1ccc2cc(C(=O)O)n(Cc3cc(NS(=O)(=O)Cc4c(F)cccc4F)cc4ccccc34)c2n1` [Compound 246, 6-(aminomethyl)-1-({3-[(2,6-difluorophenyl)-methanesulfonamido]-naphthalen-1-yl}meth-yl)-1H-pyrrolo[2,3-b]-pyridine-2-carboxylic acid], the Ki fell in the range of 100 to 500 nM.
In the case of `COc1ccc(Cl)cc1CS(=O)(=O)Nc1cc(Cn2c(C(=O)O)cc3ccc(CN)nc32)c2ccccc2c1` [Compound 247, 6-(aminomethyl)-1-({3-[(5-chloro-2-methoxy-phenyl)methanesulfon-amido]naphthalen-1-yl}-methyl)-1H-pyrrolo[2,3-b]pyridine-2-carboxylic acid] it was 500 to 3000 nM.
Regarding `CN1CCC(COC(=O)c2cc3ccc(CN)nc3n2Cc2cc(NS(=O)(=O)CC34CC(F)(C3)C4)cc3ccccc23)CC1` [Compound 248, (1-methylpiperidin-4-yl)-methyl 6-(aminomethyl)-1-{[3-({3-fluorobicyclo-[1.1.1]pentan-1-yl}-methanesulfonamido)-naphthalen-1-yl]methyl}-1H-pyrrolo[2,3-b]pyr-idine-2-carboxylate], the inhibition constant (Ki) was in the range of 500 to 3000 nM.
With `CN1CCC(COC(=O)c2cc3ccc(CN)nc3n2Cc2cc(NS(=O)(=O)CC3CCNCC3)cc3ccccc23)CC1` [Compound 249, (1-methylpiperidin-4-yl)methyl 6-(amino-methyl)-1-({3-{(piperi-din-4-yl)methanesul-fonamido]naphthalen-1-yl}methyl)-1H-pyr-rolo[2,3-b]pyridine-2-carboxylate] the figure was 500 to 3000 nM.

Values taken from patent publication US20240400553A1, “AMINE BASED MATRIPTASE 2 INHIBITORS AND USES THEREOF” (Disc Medicine, Inc., priority 2023, published 2024).
